From US7220784B2, “Substituted stilbenes and their reactions” (priority 2000, dated 2007)

Key:
[1] = tested on: K562 human myelogeneous leukaemia cell line; assay: Cytotoxicity/growth inhibition assay (MTT), K562; type: cell-based; settings: Homo sapiens, K562; MTT; read-out: K562 IC50
Text: (§1) In addition to the cell lines described in this paper, other established human cell lines (K562, HUVEC, H460, BE, H529, and HT29) were used in the cytotoxicity/growth inhibition assay. • (1) Inhibition of tubulin assembly. The figure quoted is the concentration required to reduce assembly of tubulin by 50%. Tubulin assembly is monitored by light scatter/absorption at 350 nm.
(2) Competition for the colchicine binding site on tubulin. The figure quoted represents the % of ^3H-colchicine bound following co-incubation of test compound and ^3H-cochicine with isolated tubulin. Where ester pro-drugs were used the experiments were carried out in the presence and absence of porcine liver esterase. • (3) Cytotoxicity/growth inhibition assay. This was carried out by the MTT assay. • (4) Permeability (shape-change) assay in endothelial cells. […] This involved the diffusion of a fluorescently labelled dextran through a barrier of endothelial cells (HUVEC) grown to confluence on a porous membrane. The effect of agents to alter the shape of these cells results in an increase in the permeability of the cells to the dye. The figure represents the increase in permeability over control cultures when drug is added (30 minutes, 1 mM.). • (5) Experiments to study the anti-vascular effects of these agents were carried out as described previously by our group. […] The anti-vascular effects of the agents were monitored by either positron emission tomography (PET) or by histologogical examination following treatment of mice bearing T50:80 murine breast tumours, or H460 human lung tumours. • (6) Anti-tumour efficacy of agents was determined in xenografts of H460 human lung cancer. Animals (n=5) were trated either with 5 daily injections and tumour size measured with time following treatment. • (7) The pharmacokinetic profile of agents was determined in mice following injection with drug. Blood was taken at various times following treatment and analysed by HPLC with UV detection. […] (AND(P)H:quinone oxidoreductace, EC 1.6.99.2). DT-diaphorase is an enzyme over-expressed in a number of human tumours. […] This two-electron reducing enzyme can be used to selectively activate prodrugs within cancers which over-express the enzyme.

tubulin [2] = tested on: T1, tubulin; assay: Inhibition of tubulin assembly; type: biochemical; settings: concentration required to reduce assembly of tubulin by 50%
T1 construct: other: concentration required to reduce assembly of tubulin by 50%
Experimental: as §1, with “The following assays (1–5) were carried out as described in our paper (Woods, et al, British Journal of Cancer, 71, 705–711 (1995)). In addition” for “In addition”

HUVEC = assay: Growth inhibition studies using HUVEC; type: cell-based, human; settings: Homo sapiens, HUVEC
Experimental: as §1, with “The following assays (1–5) were carried out as described in our paper (Woods, et al, British Journal of Cancer, 71, 705–711 (1995)). In addition” for “In addition”
(2) Competition for the colchicine binding site on tubulin. The figure quoted represents the % of ^3H-colchicine bound following co-incubation of test compound and ^3H-cochicine with isolated tubulin. Where ester pro-drugs were used the experiments were carried out in the presence and absence of porcine liver esterase. • (3) Cytotoxicity/growth inhibition assay. This was carried out by the MTT assay. • (4) Permeability (shape-change) assay in endothelial cells. This was carried out using a method based on that of Watts et al. (Anticancer Res., 17, 71–75, (1997)). This involved the diffusion of a fluorescently labelled dextran through a barrier of endothelial cells (HUVEC) grown to confluence on a porous membrane. The effect of agents to alter the shape of these cells results in an increase in the permeability of the cells to the dye. The figure represents the increase in permeability over control cultures when drug is added (30 minutes, 1 mM.). • (5) Experiments to study the anti-vascular effects of these agents were carried out as described previously by our group. (Zhao et al, European Journal of Nuclear Medicine, 26, 231–238 (1999)). The anti-vascular effects of the agents were monitored by either positron emission tomography (PET) or by histologogical examination following treatment of mice bearing T50:80 murine breast tumours, or H460 human lung tumours. • (6) Anti-tumour efficacy of agents was determined in xenografts of H460 human lung cancer. Animals (n=5) were trated either with 5 daily injections and tumour size measured with time following treatment. • (7) The pharmacokinetic profile of agents was determined in mice following injection with drug. Blood was taken at various times following treatment and analysed by HPLC with UV detection. The HPLC conditions were isocratic using a 5 micron C18 BDS column (150×4.6) ad eluting with 75% MeOH in water with a detection wavelength of 290 nm. […] (AND(P)H:quinone oxidoreductace, EC 1.6.99.2). DT-diaphorase is an enzyme over-expressed in a number of human tumours. […] This two-electron reducing enzyme can be used to selectively activate prodrugs within cancers which over-express the enzyme.

tubulin [3] = assay: MA IC50 (Tables 12-26, abbreviation not defined); type: biochemical
tubulin [4] = assay: CD IC50 (Tables 12-26, abbreviation not defined); type: binding

| SMILES | IC50 [1] | IC50 (tubulin [2]) | IC50 (HUVEC) | IC50 (tubulin [3]) | IC50 (tubulin [4]) |
| --- | --- | --- | --- | --- | --- |
| CCOc1cc(/C=C\c2ccc(OC)c(O)c2)cc(OCC)c1OCC [Compound 31a, Z-1-(3′,4′,5′-triethoxyphenyl)-2-(3″-hydroxy-4″-methoxyphenyl)ethene] | 18 nM | 7.5 µM | – | – | – |
| COc1ccc(/C=C\c2cc(OC)c(OC)c(OC)c2)cc1 [Compound 32] | 4 nM | – | 6 nM | 200 nM | 5500 nM |
| CCOc1cc(/C=C\c2ccc(OC)c(F)c2)cc(OCC)c1OCC [Compound 32a, Z-1-(3′,4′,5′-triethoxyphenyl)-2-(3″-fluoro-4″-methoxyphenyl)ethene] | 44 nM | 18 µM | – | – | – |
| CC/C(=C/c1cc(OC)c(OC)c(OC)c1)c1ccc(OC)c(O)c1 [Compound 45] | 120 nM | 1.8 µM | – | – | – |
